The values below come from patent US20150031892A1, “SPHINGOLIPID METABOLITE MIMETICS” (Zhejiang University, priority 2012, published 2015).

Type in all cases: cell-based
Experiment [1] concerns HepG2. The experiment in a line: MTT cytotoxicity assay, HepG2 (liver cancer). To be noted: Homo sapiens. Here is the method:
(§1) Cell survival after exposure to the sphingolipid metabolite mimetics was examined by MTT cytotoxicity assay. HepG2, A431, HeLa, MCF-7 and SA cells (7000 cells/well) were seeded in each well of a 96-well plate for 24 h. New medium was added to give final concentrations of 0 to 200 μM of the sphingolipid metabolite mimetics. Then, 50 μl of 1 mg/ml 3-(4,5-dimethylthiazol-2-yl)-2,5-diphenyltetrazolium bromide (MTT, Sigma-Aldrich Chemical) was added to each well for 4 h incubation at 37° C. The purple formazan formed was then solubilized by DMSO and absorbance at 570 nm was read by a microplate reader (Molecular Devices, Sunnyvale, Calif.).
A general note: Formazan colour is commonly taken as a measure of viable cells.

Experiment [2] deals with MCF-7. The experiment is described as follows: MTT cytotoxicity assay, MCF-7 (breast cancer). To be noted: Homo sapiens, MCF7; Breast Cancer MCF-7, MTT. The procedure:
as §1

Experiment [3] concerns SA. The experiment in a line: MTT cytotoxicity assay, SA (pancreatic cancer as headed). Here is the method: as §1
The subject of experiment [4] is SW480. The experiment is described as follows: MTT cytotoxicity assay, SW480 (colon cancer). To be noted: Homo sapiens.
Experiment [5] has as its system A431. The experiment is described as follows: MTT cytotoxicity assay, A431 (squamous carcinoma). To be noted: Homo sapiens, A-431. Here is the method: as §1
Experiment [6] concerns SW620. The experiment is described as follows: MTT cytotoxicity assay, SW620 (colon cancer). The note with it: Homo sapiens, SW-620.
Experiment [7] relates to SiHa. The experiment is described as follows: MTT cytotoxicity assay, SiHa (ovarian cancer as headed). The note with it: Homo sapiens, Cervical Cancer SiHa.

Bounds are passed on as bounds.

What is called IC50 is the concentration that gives 50% inhibition. As for `CCCCCCCCCCCCNC(=O)[C@@H](NC(=O)/C=C/c1ccccc1)[C@@H](C)O` [NZJU24, (E)-N-((2S,3R)-3-hydroxy-1-oxo-1-(dodecylamino)butan-2-yl)-3-phenyl acrylic acid amide], the half-inhibitory concentration (IC50) in experiment [1] is greater than 200 µM; in experiment [2] it was greater than 200 µM; in experiment [3] it was 154.8 ± 1.16 µM; in experiment [4], greater than 200 µM; in experiment [5] it was greater than 200 µM; in experiment [6], no less than 200 µM. In experiment [7], this compound gave an IC50 greater than 200 µM.
`CCCCCCCCCCCCNC(=O)[C@@H](NC(=O)c1ccc2cc(O)ccc2c1)[C@@H](C)O` [NZJU53, N-((2S,3R)-3-hydroxy-1-oxo-1-(dodecylamino)butan-2-yl)-6-hydroxylnaphthoic-2-carboxamide]: the half-inhibitory concentration (IC50) in experiment [1] is 43 ± 4.04 µM; in experiment [3], 37.1 ± 1.17 µM; in experiment [4] it was 58.1 ± 4.37 µM; in experiment [5] it was 33 ± 3.55 µM; in experiment [7], 27.4 ± 2.07 µM.
Taken in the same sequence, the figures for `CCCCCCCCCCCCCCNC(=O)[C@@H](NC(=O)c1ccc2cc(O)ccc2c1)[C@@H](C)O` [NZJU54, N-((2S,3R)-3-hydroxy-1-oxo-1-(tetradecylamino)butan-2-yl)-6-hydroxylnaphthoic-2-carboxamide] were 23.6 ± 1.16 µM, 24.2 ± 0.83 µM, 33.2 ± 1.08 µM, 24.4 ± 1.27 µM and 30.1 ± 3.01 µM.
For the compound `CCCCCCCCCCCCCC(=O)N[C@H](C(=O)Nc1ccccc1)[C@@H](C)O` [NZJU19, N-((2S,3R)-3-Hydroxy-1-oxo-1-(benzamino)butan-2-yl)-tetradecyl acid amide], the IC50 was greater than 400 µM in experiment [1]; greater than 400 µM in experiment [2]; greater than 200 µM in experiment [3]; greater than 200 µM in experiment [4]; greater than 200 µM in experiment [5]; no less than 200 µM in experiment [6]. The compound further came in with an IC50 in experiment [7] greater than 200 µM.
Regarding `CCCCCCCCCCCCCCCCCCNC(=O)[C@@H](NC(=O)c1ccco1)[C@@H](C)O` [NZJU15, N-((2S,3R)-3-hydroxy-1-oxo-1-(octadecylamino)butan-2-yl)-Furan-2-carboxamide], the half-maximal inhibitory concentration (IC50) in experiment [1] worked out at 42.3 ± 3.73 µM; in experiment [2], 21.4 ± 2.4 µM; in experiment [3], 52.6 ± 6.02 µM; in experiment [4], 24.4 ± 0.7 µM; in experiment [5], 19.9 ± 0.45 µM; in experiment [7], 13.3 ± 1.05 µM.
Take `CCCCCCCCCCCCCCCCCCNC(=O)[C@@H](NC(=O)c1cc2ccccc2o1)[C@@H](C)O` [NZJU38, N-((2S,3R)-3-hydroxy-1-oxo-1-(octadecylamino)butan-2-yl)-benzofuran-2-carboxamide]: the IC50 in experiment [1] is greater than 200 µM; in experiment [2], 126 ± 7.19 µM; in experiment [3], 162 ± 4.55 µM; in experiment [4] it was greater than 200 µM; in experiment [5], 78.8 ± 6.99 µM; in experiment [7], greater than 200 µM.
Consider `CCCCCCCCCCCCCCCCCCNC(=O)[C@@H](NC(=O)c1ccc2cc(O)ccc2c1)[C@@H](C)O` [NZJU55, N-((2S,3R)-3-hydroxy-1-oxo-1-(octadecylamino)butan-2-yl)-6-hydroxylnaphthoic-2-carboxamide], for which the IC50 was 73.7 ± 5.21 µM in experiment [1]; 84.8 ± 4.34 µM in experiment [3]; 160 ± 5.86 µM in experiment [4]; 85.8 ± 1.73 µM in experiment [5]; 48.1 ± 4.67 µM in experiment [7].
The like results for `CCCCCCCCCCCCNC(=O)[C@@H](NC(=O)c1cc2ccccc2n1C)[C@@H](C)O` [NZJU50, N-((2S,3R)-3-hydroxy-1-oxo-1-(dodecylamino)butan-2-yl)-(N-methyl)indole-2-carboxamide] were, in that order, greater than 200 µM, 31.3 ± 1.14 µM, 36 ± 2.87 µM, 169 ± 14.7 µM and greater than 200 µM.
Regarding `CCCCCCCCCCCCCCCCCCNC(=O)[C@@H](NS(=O)(=O)c1ccc2ccccc2c1)[C@@H](C)O` [NZJU63, N-((2S,3R)-3-hydroxy-1-oxo-1-(octadecylamino)butan-2-yl)-2-naphthylsulfonamide], the 50% inhibitory concentration (IC50) in experiment [1] worked out at 19.8 ± 3.12 µM; in experiment [3] it was 21.2 ± 0.81 µM; in experiment [4] it was 69.1 ± 9.67 µM; in experiment [5], 23.7 ± 1.46 µM; in experiment [7], 19.9 ± 3.31 µM.
Take `CCCCCCCCNC(=O)[C@@H](NC(=O)c1nccc2ccccc12)[C@@H](C)O` [NZJU43, N-((2S,3R)-3-hydroxy-1-oxo-1-(octylamino)butan-2-yl)-isoquinoline-1-carboxamide]: the IC50 was found to be 88.2 ± 1.92 µM in experiment [1]; 63.2 ± 4.73 µM in experiment [2]; 22.9 ± 2.59 µM in experiment [3]; 26.9 ± 2.81 µM in experiment [5]; 67.75 ± 0.099 µM in experiment [6]; 66 ± 5.48 µM in experiment [7].
Take `CCCCCCCCCCCCNC(=O)[C@@H](NS(=O)(=O)c1ccc(C)cc1)[C@@H](C)O` [NZJU56, N-((2S,3R)-3-hydroxy-1-oxo-1-(dodecylamino)butan-2-yl)-4-methylbenzsulfonamide]: the IC50 in experiment [1] came to 25.8 ± 0.52 µM; in experiment [3], 27.2 ± 0.99 µM; in experiment [4], 39.9 ± 2.54 µM; in experiment [5], 25.2 ± 0.99 µM; in experiment [7], 31.6 ± 4.56 µM.
For the compound `CCCCCCCCCCCCCCCCCCNC(=O)[C@@H](NS(=O)(=O)c1ccc(C)cc1)[C@@H](C)O` [NZJU58, N-((2S,3R)-3-hydroxy-1-oxo-1-(octadecylamino)butan-2-yl)-4-methylbenzsulfonamide], the concentration for half-maximal inhibition (IC50) in experiment [1] is 75.8 ± 9.46 µM; in experiment [3], 47.9 ± 5.2 µM; in experiment [4] it was greater than 200 µM; in experiment [5], 34 ± 1.03 µM; in experiment [7], 29.8 ± 2.23 µM.
The like results for `CCCCCCCCCCCCNC(=O)[C@@H](NS(=O)(=O)c1cccs1)[C@@H](C)O` [NZJU59, N-((2S,3R)-3-hydroxy-1-oxo-1-(dodecylamino)butan-2-yl)-2-thiophene sulfonamide] were, in that order, 25.9 ± 1.21 µM, 20.1 ± 1.65 µM, 41 ± 2.25 µM, 22 ± 0.86 µM and 30.9 ± 1.28 µM.
The like results for `CCCCCCCCCCCCCCCCCCNC(=O)[C@@H](NS(=O)(=O)c1cccs1)[C@@H](C)O` [NZJU61, N-((2S,3R)-3-hydroxy-1-oxo-1-(octadecylamino)butan-2-yl)-2-thiophene sulfonamide] were, in that order, greater than 200 µM, greater than 200 µM, greater than 200 µM, greater than 200 µM and greater than 200 µM.
On to `CCCCCCCCCCCCCCCCCCNC(=O)[C@@H](NC(=O)c1cc2ccccc2n1C)[C@@H](C)O` [NZJU52, N-((2S,3R)-3-hydroxy-1-oxo-1-(octadecylamino)butan-2-yl)-(N-methyl)indole-2-carboxamide], for which the IC50 was greater than 200 µM in experiment [1]; 36.37 ± 0.19 µM in experiment [3]; 36 ± 3.23 µM in experiment [4]; 61 ± 1.82 µM in experiment [5]; 113 ± 12 µM in experiment [7].
As to `CCCCCCCCCCCCCCNC(=O)[C@@H](NC(=O)C1=C[C@H](O)[C@H](O)[C@@H](O)C1)[C@@H](C)O` [NZJU64, (3S,4R,5S)-3,4,5-trihydroxy-N-((2S,3R)-3-hydroxy-1-oxo-1-(tetradecylamino)butan-2-yl)cyclohex-1-enecarboxamide], the IC50 was determined as 29.9 ± 2.81 µM in experiment [1]; 33.7 ± 1.28 µM in experiment [3]; 47.8 ± 3.43 µM in experiment [4]; 23.1 ± 2.97 µM in experiment [5]; 24.6 ± 2.04 µM in experiment [7].
In the case of `CCCCCCCCCCCCCCCCCCNC(=O)[C@@H](N)[C@@H](C)O` [NZJU4, (2S,3R)-2-Amino-3-hydroxy-N-octadecylbutanamide], the IC50 in experiment [1] came out at 44.5 ± 3.49 µM; in experiment [2] it was 27.4 ± 1.8 µM; in experiment [4], 27.5 ± 3.03 µM; in experiment [5], 21.3 ± 1.72 µM; in experiment [6], 21.4 ± 1.24 µM; in experiment [7] it was 39.5 ± 0.88 µM.
